From paper PMC9116242 (Journal of Enzyme Inhibition and Medicinal Chemistry, 2022)

How the values were obtained:
[1] = test system: TNF-α production in LPS-induced BV-2 cells; experiment: LPS-induced TNF-α production in BV-2 cells, ELISA; assay type: cell-based; settings: for Level of TNF-α production: BV-2 cells, 1.0 μg/mL LPS; for inhibition at 5 µM: Mus musculus, BV-2, read-out: Inhibitory rate of TNF-α production
[2] = test system: NO production in LPS-induced BV-2 cells; experiment: NO release in BV-2 cells and LPS-stimulated BV-2 cells, Griess reaction; assay type: cell-based; settings: 5 and 10 μM
BV-2 cells = experiment: Cytotoxicity on BV-2 cells, MTT assay; assay type: cell-based; settings: 5 and 10 μM
[3] = PAMPA-BBB permeation assay; settings: Table 3
huMAO-B = biological target: T1, huMAO-B (Homo sapiens, UniProt P27338); experiment: Kinetic study against huMAO-B, Lineweaver-Burk plots; assay type: biochemical; settings: 5a at 0.15, 0.3 and 0.6 μM
T1 sequence (P27338 1-520): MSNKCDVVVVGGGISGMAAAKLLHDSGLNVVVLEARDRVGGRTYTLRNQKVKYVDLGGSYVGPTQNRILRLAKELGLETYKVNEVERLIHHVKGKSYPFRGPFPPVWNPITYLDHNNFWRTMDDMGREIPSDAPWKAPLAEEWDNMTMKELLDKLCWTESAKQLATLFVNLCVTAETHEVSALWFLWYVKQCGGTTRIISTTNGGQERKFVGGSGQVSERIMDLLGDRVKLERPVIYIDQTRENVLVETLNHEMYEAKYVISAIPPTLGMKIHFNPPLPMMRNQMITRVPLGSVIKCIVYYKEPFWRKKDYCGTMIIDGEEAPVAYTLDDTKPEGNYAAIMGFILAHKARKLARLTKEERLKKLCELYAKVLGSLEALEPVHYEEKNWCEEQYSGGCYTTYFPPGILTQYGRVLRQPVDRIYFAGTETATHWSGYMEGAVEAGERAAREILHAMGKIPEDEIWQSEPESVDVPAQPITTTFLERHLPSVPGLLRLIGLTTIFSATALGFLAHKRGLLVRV

PC12 cells = experiment: Neuroprotective effect against Aβ1-42-induced PC12 cell injury, MTT assay; assay type: cell-based; settings: 25 μM Aβ1-42 for 48 h, compound at 5 and 10 μM
[4] = In vivo PET-CT imaging with [11C]5f in mice; settings: blocker 1.0 mg/kg 5 min before the radiotracer, compared with baseline

With C#CCOc1ccc(/C=C/C(=O)N2CCC(Cc3ccccc3)CC2)cc1OC [Compound 5a, (E)-1-(4-benzylpiperidin-1-yl)-3-(3-methoxy-4-(prop-2-yn-1-yloxy)phenyl)prop-2-en-1-one] as the molecule, how does the “Level of TNF-α production” value ([1]; compound at 5 μM) read?
The value was 820 pg/mL.

And the “Level of TNF-α production” value ([1]; compound at 10 μM)?
The value was 520 pg/mL.

And the inhibition at 5 µM [1]?
The inhibition at 5 µM was 51.7%.

What about the “Effect on release of NO in BV-2 cells without LPS” value [2] of the same molecule?
Its value is “did not produce an effect on the release of NO”.

What about the “Cytotoxicity on BV-2 cells (cell viability)” value (from here on “Cytotoxicity on BV-2 cells”) (BV-2 cells) of the same molecule?
Its value is “non-toxic”.

And the Pe [3]?
The Pe was 1.47e-05 cm/s.

And the “Type of MAO-B inhibition” value (huMAO-B)?
Its value is “competitive”.

With COc1cc(/C=C/C(=O)N2CCC(Cc3ccccc3)CC2)ccc1OC1CCCCC1 [Compound 5d, (E)-1-(4-benzylpiperidin-1-yl)-3-(4-(cyclohexyloxy)-3-methoxyphenyl)prop-2-en-1-one] as the molecule, how does the “Level of TNF-α production” value ([1]; compound at 5 μM) read?
Its value is 780 pg/mL.

What about the “Level of TNF-α production” value ([1]; compound at 10 μM) of the same molecule?
The value was 460 pg/mL.

And the inhibition at 5 µM [1]?
Its inhibition at 5 µM is 54.1%.

And the “Cell viability, Aβ1-42-induced PC12 cell injury (in words)” value (shortened to “Cell viability … (in words)”) (PC12 cells)?
Its value is “gradually increased in a dose-dependent manner”.

And the “Effect on release of NO in BV-2 cells without LPS” value [2]?
The value was “did not produce an effect on the release of NO”.

What about the “Cytotoxicity on BV-2 cells” value (BV-2 cells) of the same molecule?
The value was “non-toxic”.

What about the Pe [3] of the same molecule?
Its Pe is 1.82e-05 cm/s.

What does the source list for C#CCOc1ccc(/C=C/C(=O)N2CCc3ccccc3C2)cc1OC [Compound 5e, (E)-1-(3,4-dihydroisoquinolin-2(1H)-yl)-3-(3-methoxy-4-(prop-2-yn-1-yloxy)phenyl)prop-2-en-1-one]?
Level of TNF-α production ([1]; compound at 5 μM): 805 pg/mL; Level of TNF-α production ([1]; compound at 10 μM): 550 pg/mL; inhibition at 5 µM [1]: 52.6%; Cell viability, Aβ1-42-induced PC12 cell injury (in words) (PC12 cells): gradually increased in a dose-dependent manner; Effect on release of NO in BV-2 cells without LPS [2]: did not produce an effect on the release of NO; Cytotoxicity on BV-2 cells (cell viability) (BV-2 cells): non-toxic; Pe [3]: 1.25e-05 cm/s

For COc1ccc(/C=C/C(=O)N2CCc3ccccc3C2)cc1OC [Compound 5f, (E)-1-(3,4-dihydroisoquinolin-2(1H)-yl)-3-(3,4-dimethoxyphenyl)prop-2-en-1-one], which “Level of TNF-α production” value ([1]; compound at 5 μM) is on record?
The value was 750 pg/mL.

And the “Level of TNF-α production” value ([1]; compound at 10 μM)?
The value was 455 pg/mL.

And the inhibition at 5 µM [1]?
Its inhibition at 5 µM is 55.9%.

And the “Cell viability … (in words)” value (PC12 cells)?
Its value is “gradually increased in a dose-dependent manner”.

What about the “Effect on release of NO in BV-2 cells without LPS” value [2] of the same molecule?
The value was “did not produce an effect on the release of NO”.

And the “Cytotoxicity on BV-2 cells” value (BV-2 cells)?
Its value is “non-toxic”.

And the Pe [3]?
The Pe was 2.04e-05 cm/s.

And the “Radio-uptake decrease of [11C]5f in the brain after pre-treatment (blocking)” value [4]?
Its value is about 35%.

With COc1cc(/C=C/C(=O)N2CCc3ccccc3C2)ccc1OC1CCCCC1 [Compound 5h, (E)-3-(4-(cyclohexyloxy)-3-methoxyphenyl)-1-(3,4-dihydroisoquinolin-2(1H)-yl)prop-2-en-1-one] as the molecule, how does the “Level of TNF-α production” value ([1]; compound at 5 μM) read?
The value was 740 pg/mL.

And the “Level of TNF-α production” value ([1]; compound at 10 μM)?
The value was 435 pg/mL.

What about the inhibition at 5 µM [1] of the same molecule?
The inhibition at 5 µM was 56.5%.

And the “Cell viability … (in words)” value (PC12 cells)?
The value was “gradually increased in a dose-dependent manner”.

What about the “Effect on release of NO in BV-2 cells without LPS” value [2] of the same molecule?
Its value is “did not produce an effect on the release of NO”.

And the “Cytotoxicity on BV-2 cells” value (BV-2 cells)?
The value was “non-toxic”.

And the Pe [3]?
The Pe was 1.67e-05 cm/s.

Which “Radio-uptake decrease of [11C]5f in the brain after pre-treatment (blocking)” value [4] does the source give for CCN(C)C(=O)Oc1cccc([C@H](C)N(C)C)c1 [Rivastigmine, reference compound] here?
Its value is about 35%.
